Experimental data: paper PMC7191901, “Hybrid inhibitors of DNA and HDACs remarkably enhance cytotoxicity in leukaemia cells” (Journal of Enzyme Inhibition and Medicinal Chemistry, 2020)
Entries after “also recorded” stand apart in the source; their conditions may differ. Read-outs that look alike come from different tables or passages of the source.

Tests used:
[1] = tested on: MCF-7/ADR cells; assay: cells; format: cell-based; details: Homo sapiens, NCI/ADR-RES, 72 h, read-out: GI50, MCF-7/ADR
[2] = tested on: A549 cells; assay: cells; format: cell-based; details: Homo sapiens, A549, 72 h, read-out: GI50, A549
[3] = tested on: U-937 cells; assay: Cell proliferation (MTS) assay, U-937; format: cell-based; details: Homo sapiens, read-out: GI50 values, U-937
[4] = tested on: MCF-7 cells; assay: Cell proliferation (MTS) assay, MCF-7; format: cell-based; details: Homo sapiens, MCF7, 72 h, read-out: GI50 values, MCF-7
[5] = tested on: MDA-MB-231 cells; assay: Cell proliferation (MTS) assay, MDA-MB-231; format: cell-based; details: Homo sapiens, read-out: GI50 values, MDA-MB-231
[6] = tested on: HL-60 cells; format: cell-based, human
[7] = tested on: HL-60 cells; assay: Cell proliferation (MTS) assay, HL-60; format: cell-based; details: Homo sapiens, read-out: GI50 values, HL-60
[8] = tested on: PARP, caspase 3, and caspase 8; format: cell-based, human
[9] = tested on: U266 cells; assay: cells; format: cell-based; details: Homo sapiens, U-266, 72 h, read-out: GI50, U266
[10] = tested on: A2780 cells; assay: Cell proliferation (MTS) assay, A2780; format: cell-based; details: Homo sapiens, read-out: GI50 values, A2780
[11] = tested on: H1975 cells; assay: cells; format: cell-based; details: Homo sapiens, NCI-H1975, 72 h, read-out: GI50, H1975
[12] = tested on: HL-60 cells; format: cell-based, human; remark: listed apart in the source
[13] = tested on: Ac-α-tubulin and Ac-histone H3; format: cell-based, human
[14] = U-937, 3 days (72 h), MTS assay
[15] = MDA-MB-231, 3 days (72 h), MTS assay
[16] = HL-60, 3 days (72 h), MTS assay
[17] = A2780, 3 days (72 h), MTS assay

GI50 [3, 14] [µM] | GI50 ([4]; 3 days, MTS assay) [µM] | GI50 [5, 15] [µM] | GI50 [7, 16] [µM] | GI50 [10, 17] [µM] | Compound | GI50 [1] [µM] | GI50 [2] [µM] | GI50 ([3]; U-937, 72 h) [µM] | GI50 [4] [µM] | GI50 ([5]; MDA-MB-231, 72 h) [µM] | G2/M fraction [6] [%] | GI50 ([7]; HL-60, 72 h) [µM] | concentration required to induce the cleavage of PARP, caspase 3, and caspase 8 [8] [µM] | GI50 [9] [µM] | GI50 ([10]; A2780, 72 h) [µM] | GI50 [11] [µM] | % DNA content in the tail [12] [%] | acetylation of α-tubulin and histone H3 [13]
 |  |  |  |  | O=C(O)CCCc1ccc(N(CCCl)CCCl)cc1 [Chlorambucil] | > 100 | > 100 | 37.7 | 393 | > 100 | 32.2 | 21.1 | 30 | > 100 | > 100 | > 100 | 2.1 | failed to induce the acetylation of α-tubulin and histone H3; also recorded: little acetylation of α-tubulin and histone H3
93 | 393 | > 100 | 60.5 | > 100 | Nc1ccc(CCCC(=O)NO)cc1 [Compound 7, 4–(4-Aminophenyl)-N-hydroxybutanamide] |  |  |  |  |  |  |  |  |  |  |  |  | 
> 100 | 282 | 85.1 | 70.3 | 81 | CCN(CC)c1ccc(CCCC(=O)NO)cc1 [Compound 8a, 4–(4-(Diethylamino)phenyl)-N-hydroxybutanamide] |  |  |  |  |  |  |  |  |  |  |  |  | 
40.2 | 37.8 | 66.8 | 34.4 | 7.79 | CCCN(CCC)c1ccc(CCCC(=O)NO)cc1 [Compound 8b, 4–(4-(Dipropylamino)phenyl)-N-hydroxybutanamide] |  |  |  |  |  |  |  |  |  |  |  |  | 
